pKd: −log10 of the molar value. Values joined by “and” are separate entries in the source; they are usually repeats but may differ in a detail not shown here. Identical values can stand only once.
Tests used:
PctA-LBD Y144A = target: T1, PctA-LBD Y144A (Pseudomonas aeruginosa, UniProt G3XD24, Y144A); experiment: biochemical; type: binding; settings: PctA-LBD Y144A 70 μM; DPD/AI-2 700 μM
T1 construct: Amino acids 30-278 and 36-360 of PctA and TlpQ, respectively; His6 (N, cleaved yes); made in house; host or cells: E. coli BL21(DE3) (pET-28a derivative)

P. aeruginosa PAO1 = experiment: crystal violet quantification of biofilm formation; settings: 100 nM DPD/AI-2, 37 °C, 48 h
Procedure: Biofilms were stained with crystal violet and quantified using optical density measurement after incubation at 37 °C for 48 h. Data are mean ± s.e.m. of five independent experiments. b Quantification of biofilm formation by P. aeruginosa strains from confocal imaging. […] Images were reconstructed using the Imaris 9.0 software package (Bitplane, AG) (Supplementary Fig. 6) and biofilm biovolumes were quantified using COMSTAT (www.comstat.dk). Biovolumes were calculated from three biological replicates and each biological replicate was derived from an average of five confocal images.
For crystal violet quantification of biofilm formation, overnight cultures of relevant strains of P. aeruginosa were diluted with TSB medium to an OD600 of 0.05, and 190 μl aliquots of the diluted cells were inoculated into each well of a 96-well microtiter plate (cat# 220400, Zhejiang Sorfa Life Science Research Co., Ltd., China). […] After incubation at 37 °C for 48 h without shaking, culture supernatant was removed and the wells were washed twice with phosphate-buffered saline (PBS). Cells adhering to the wells were stained with 0.1% (w/v) crystal violet for 15 min and then washed three times with PBS. The bacteria-bound dye was dissolved in 200 μl of 95% ethanol and the absorbance was determined at 590 nm.

PctA-LBD Y121A = target: T2, PctA-LBD Y121A (Pseudomonas aeruginosa, UniProt G3XD24, Y121A); experiment: biochemical; type: binding; settings: PctA-LBD Y121A 70 μM; DPD/AI-2 700 μM
T2 construct: Amino acids 30-278 and 36-360 of PctA and TlpQ, respectively; His6 (N, cleaved yes); made in house; host or cells: E. coli BL21(DE3) (pET-28a derivative)

PctA-LBD W128A = target: T3, PctA-LBD W128A (Pseudomonas aeruginosa, UniProt G3XD24, W128A); experiment: biochemical; type: binding; settings: PctA-LBD W128A 70 μM; DPD/AI-2 700 μM
T3 construct: Amino acids 30-278 and 36-360 of PctA and TlpQ, respectively; His6 (N, cleaved yes); made in house; host or cells: E. coli BL21(DE3) (pET-28a derivative)

PctA-LBD R126A = target: T4, PctA-LBD R126A (Pseudomonas aeruginosa, UniProt G3XD24, R126A); experiment: biochemical; type: binding; settings: PctA-LBD R126A 70 μM; DPD/AI-2 700 μM
T4 construct: Amino acids 30-278 and 36-360 of PctA and TlpQ, respectively; His6 (N, cleaved yes); made in house; host or cells: E. coli BL21(DE3) (pET-28a derivative)

KinD = target: T5, KinD (Bacillus subtilis, UniProt O31671); experiment: in vitro kinase assay, KinD autophosphorylation (LC-MS/MS); type: biochemical, B. subtilis; settings: 100 μM ATP, 30 min, 30 °C
T5 construct: The genes encoding full-length KinD and rpHK1S-Z16 were cloned with a C-terminal His6 tag into pHSe5; made in house; host or cells: E. coli BL21(DE3) ΔluxS (pHSe5), membrane fractions
Procedure: Twenty micrograms of membrane fractions containing KinD was preincubated in a 50-μl reaction system containing 50 mM Tris-HCl (pH 7.8), 2 mM DTT, 25 mM NaCl, 25 mM KCl, 5 mM MgCl2 for 10 min at 30 °C. […] A control experiment was performed without ATP to check the initial phosphorylation state of KinD. After 30 min incubation at 30 °C, products were resolved by SDS-PAGE, and the gel bands corresponding to KinD were excised and used for detection and quantification of phosphorylation by nano-LC-MS/MS.
Gel slices excised from SDS-PAGE gels were destained with three washes in 100 μl of 100 mM ammonium bicarbonate in 50% acetonitrile at 37 °C for 15 min. Destained gel pieces were dried in a SpeedVac (Thermo Fisher Scientific) for 15 min. 10 mM DTT in 25 mM ammonium bicarbonate was added to cover the gel pieces and incubated at 56 °C for 1 h. […] The dried peptide samples were resolubilized in 0.1% formic acid and analyzed in C18 reversed-phase column connected to an EASY-nLC 1000 interfaced via a Nanospray Flex ion source to an Orbitrap Fusion Tribrid mass spectrometer (Thermo Fisher Scientific). […] Protein identification and quantification were performed using Mascot Daemon version 2.5.1 (Matrix Science, Boston, USA) considering the specific modifications.

PctA = target: T6, PctA (Pseudomonas aeruginosa, UniProt G3XD24); experiment: in vitro methylation of PctA by CheR1 (LC-MS/MS); type: biochemical, P. aeruginosa; settings: for Methylation level (%) of PctA at E381: CheR1, 10 μM SAM, 1 h, 30 °C; for Methylation level (%) of PctA, Fig. S5a / Methylation level (%) of PctA, Fig. S5b: site not given (Supplementary Fig. 5: E395 and E614)
T6 construct: the membrane fractions containing full-length PctA, KinD or rpHK1S-Z16 were collected; made in house; host or cells: E. coli HCB721 (pHSe5), membrane fractions
Procedure: The reaction was initiated by adding 10 μM SAM and the reaction was allowed to proceed for another 1 h at 30 °C. […] A control experiment was performed with no addition of SAM to check the initial methylation state of PctA. The reaction was stopped by adding 2× SDS-PAGE loading buffer. The reaction products were resolved by SDS-PAGE and stained with Coomassie brilliant blue. The gel bands corresponding to PctA were excised and used for detection and quantification of methylation by nano-LC-MS/MS.
Gel slices excised from SDS-PAGE gels were destained with three washes in 100 μl of 100 mM ammonium bicarbonate in 50% acetonitrile at 37 °C for 15 min. Destained gel pieces were dried in a SpeedVac (Thermo Fisher Scientific) for 15 min. 10 mM DTT in 25 mM ammonium bicarbonate was added to cover the gel pieces and incubated at 56 °C for 1 h. After cooling to room temperature, the supernatant was replaced by 55 mM iodoacetamide in 25 mM ammonium bicarbonate followed by 1 h incubation at room temperature in darkness. Gel slices were washed with 100 μl of 25 mM ammonium bicarbonate for 10 min, and then shrunk in acetonitrile for 10 min. Acetonitrile was removed and the gel slices were dried in a SpeedVac. The dried gel slices were swollen with 20 μl of 12.5 ng µl^−1 Pierce^TM trypsin protease (MS-grade; Thermo Fisher Scientific) in 50 mM ammonium bicarbonate at 4 °C for 1 h. An additional 30 μl of 50 mM ammonium bicarbonate was supplemented, followed by overnight incubation at 37 °C. After digestion, supernatants were transferred to a new tube, and remaining peptides were extracted from the gel slices with 50 μl of 0.1% trifluoroacetic acid at 37 °C for 30 min. Combined extracts for each gel slice were dried in a SpeedVac. The dried peptide samples were resolubilized in 0.1% formic acid and analyzed in C18 reversed-phase column connected to an EASY-nLC 1000 interfaced via a Nanospray Flex ion source to an Orbitrap Fusion Tribrid mass spectrometer (Thermo Fisher Scientific). The LC mobile phase consisted of 0.1% formic acid (v/v) in water (A) and 0.1% formic acid in acetonitrile (B). […] A data-dependent Top 20 method was used with precursor MS1 scan (m/z 350–1550) acquired in the Orbitrap at a resolution of 120,000, followed by Orbitrap HCD-MS/MS and OTHCD-MS/MS of the 20 most abundant multiply charged precursors in the MS1 spectrum. MS2 spectra were acquired at a resolution of 30,000. Methylation on glutamic acid residues of PctA and phosphorylation on histidine residues of KinD were set as variable modifications. Protein identification and quantification were performed using Mascot Daemon version 2.5.1 (Matrix Science, Boston, USA) considering the specific modifications.

PctA-LBD = target: T7, PctA-LBD (Pseudomonas aeruginosa, UniProt G3XD24); experiment: ITC binding to PctA-LBD; set-up: species or system P. aeruginosa; settings: 700 μM DPD/AI-2 into 70 μM PctA-LBD (WT); 20 °C; normal conditions; mean ± s.d. of three in text/figure, single experiments in source data
T7 construct: Amino acids 30-278 and 36-360 of PctA and TlpQ, respectively; His6 (N, cleaved yes); made in house; host or cells: E. coli BL21(DE3) (pET-28a derivative)

LsrB = settings: established receptor LsrB; cited from earlier work
PctC-LBDF147Y = target: T8, PctC-LBDF147Y (Pseudomonas aeruginosa, UniProt Q9HW93, F147Y); experiment: biochemical; type: binding; settings: 700 μM DPD/AI-2 into 70 μM PctC-LBD F147Y
T8 construct: the dCACHE-type LBDs of PctB and PctC; His6 (N, cleaved yes); made in house; host or cells: E. coli BL21(DE3) (pET-28a derivative)
T8 sequence (Q9HW93 32-279 F147Y): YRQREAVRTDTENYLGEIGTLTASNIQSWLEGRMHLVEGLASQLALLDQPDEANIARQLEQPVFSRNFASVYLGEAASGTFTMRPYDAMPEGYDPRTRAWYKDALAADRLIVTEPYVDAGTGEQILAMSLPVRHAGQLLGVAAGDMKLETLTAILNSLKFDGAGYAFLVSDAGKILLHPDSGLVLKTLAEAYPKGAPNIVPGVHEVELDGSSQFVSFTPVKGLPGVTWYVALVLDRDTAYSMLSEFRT

T4 sequence (G3XD24 30-278 R126A): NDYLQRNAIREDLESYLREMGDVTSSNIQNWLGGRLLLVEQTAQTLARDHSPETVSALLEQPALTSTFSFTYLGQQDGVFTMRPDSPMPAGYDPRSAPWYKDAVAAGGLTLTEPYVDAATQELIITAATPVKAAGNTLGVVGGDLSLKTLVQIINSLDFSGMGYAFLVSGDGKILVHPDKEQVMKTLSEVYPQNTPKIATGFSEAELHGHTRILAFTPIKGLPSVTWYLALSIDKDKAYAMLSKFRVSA
T5 sequence (O31671 whole entry): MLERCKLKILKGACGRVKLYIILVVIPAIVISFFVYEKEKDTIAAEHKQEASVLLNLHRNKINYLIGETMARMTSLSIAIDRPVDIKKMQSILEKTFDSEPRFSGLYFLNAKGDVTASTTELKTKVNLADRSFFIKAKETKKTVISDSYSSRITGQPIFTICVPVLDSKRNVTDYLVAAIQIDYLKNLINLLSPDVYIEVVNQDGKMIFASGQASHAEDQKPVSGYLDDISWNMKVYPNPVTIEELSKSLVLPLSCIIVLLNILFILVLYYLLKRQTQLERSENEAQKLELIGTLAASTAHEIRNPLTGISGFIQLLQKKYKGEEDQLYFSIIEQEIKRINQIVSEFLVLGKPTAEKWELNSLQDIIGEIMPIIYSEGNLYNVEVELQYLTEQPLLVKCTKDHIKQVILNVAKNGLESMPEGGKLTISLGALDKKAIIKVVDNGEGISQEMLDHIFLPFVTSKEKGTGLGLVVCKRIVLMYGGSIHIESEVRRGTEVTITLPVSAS
T3 sequence (G3XD24 30-278 W128A): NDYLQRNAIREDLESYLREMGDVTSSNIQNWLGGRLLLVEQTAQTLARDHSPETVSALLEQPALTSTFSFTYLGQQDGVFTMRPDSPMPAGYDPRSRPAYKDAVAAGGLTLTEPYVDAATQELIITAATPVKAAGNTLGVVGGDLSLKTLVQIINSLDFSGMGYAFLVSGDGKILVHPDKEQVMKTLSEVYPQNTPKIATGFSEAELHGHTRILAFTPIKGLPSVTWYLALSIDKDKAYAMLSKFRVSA
T2 sequence (G3XD24 30-278 Y121A): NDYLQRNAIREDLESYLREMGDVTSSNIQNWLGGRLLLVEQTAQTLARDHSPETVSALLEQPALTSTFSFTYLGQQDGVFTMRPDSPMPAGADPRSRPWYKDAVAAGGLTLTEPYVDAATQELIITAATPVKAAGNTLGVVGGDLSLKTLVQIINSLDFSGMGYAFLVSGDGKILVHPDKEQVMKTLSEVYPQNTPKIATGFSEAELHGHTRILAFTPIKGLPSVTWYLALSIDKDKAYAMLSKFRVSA
T6 sequence (G3XD24 whole entry): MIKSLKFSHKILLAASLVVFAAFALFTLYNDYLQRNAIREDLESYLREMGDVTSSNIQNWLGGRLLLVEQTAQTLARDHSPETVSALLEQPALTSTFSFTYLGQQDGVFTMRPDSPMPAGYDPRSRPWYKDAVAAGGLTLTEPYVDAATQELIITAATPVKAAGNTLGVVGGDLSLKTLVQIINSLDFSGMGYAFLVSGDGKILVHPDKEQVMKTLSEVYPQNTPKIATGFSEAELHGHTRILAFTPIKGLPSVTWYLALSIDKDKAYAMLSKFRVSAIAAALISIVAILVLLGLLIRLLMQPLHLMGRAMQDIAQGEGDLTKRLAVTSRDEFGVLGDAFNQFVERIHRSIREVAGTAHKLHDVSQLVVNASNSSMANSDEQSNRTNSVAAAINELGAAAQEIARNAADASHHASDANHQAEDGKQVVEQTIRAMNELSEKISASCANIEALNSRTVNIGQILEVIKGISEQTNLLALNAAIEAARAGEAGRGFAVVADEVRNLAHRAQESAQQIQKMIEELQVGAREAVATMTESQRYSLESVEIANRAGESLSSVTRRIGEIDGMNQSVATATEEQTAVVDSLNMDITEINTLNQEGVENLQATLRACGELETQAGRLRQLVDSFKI
T1 sequence (G3XD24 30-278 Y144A): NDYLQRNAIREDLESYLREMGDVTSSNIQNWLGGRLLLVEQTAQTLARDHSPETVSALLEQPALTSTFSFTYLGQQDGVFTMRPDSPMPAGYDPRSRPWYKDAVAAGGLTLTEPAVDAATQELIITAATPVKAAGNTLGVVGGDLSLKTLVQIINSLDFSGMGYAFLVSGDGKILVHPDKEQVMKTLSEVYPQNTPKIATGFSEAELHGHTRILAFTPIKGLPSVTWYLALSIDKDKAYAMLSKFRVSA
T7 sequence (G3XD24 30-278): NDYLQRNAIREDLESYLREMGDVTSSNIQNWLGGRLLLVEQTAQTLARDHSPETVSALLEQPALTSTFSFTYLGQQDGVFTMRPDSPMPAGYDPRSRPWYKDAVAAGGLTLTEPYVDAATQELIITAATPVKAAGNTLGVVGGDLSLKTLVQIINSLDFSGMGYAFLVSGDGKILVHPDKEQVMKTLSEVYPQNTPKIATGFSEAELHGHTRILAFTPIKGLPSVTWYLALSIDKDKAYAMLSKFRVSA

CC(=O)C(=O)C(O)CO (stereo not shown) [DPD/AI-2, 4,5-dihydroxy-2,3-pentanedione]
pKd (PctA-LBD Y144A): 4.80 and 4.85 and 4.92
OD590 (crystal violet biofilm) (P. aeruginosa PAO1; strain WT(Vector)): 3.71 and 3.92 and 4.21 and 4.32 and 4.12
OD590 (crystal violet biofilm) (P. aeruginosa PAO1; strain ΔpctA(Vector)): 2.92 and 3.14 and 3.21 and 2.99 and 3.31
OD590 (crystal violet biofilm) (P. aeruginosa PAO1; strain ΔpctAΔtlpQ(Vector)): 2.53 and 2.64 and 2.49 and 2.62 and 2.12
OD590 (crystal violet biofilm) (P. aeruginosa PAO1; strain ΔpctAΔtlpQ(pctA)): 3.05 and 3.43 and 3.56 and 3.32 and 3.18
OD590 (crystal violet biofilm) (P. aeruginosa PAO1; strain ΔpctAΔtlpQ(pctB)): 2.31 and 2.73 and 2.24 and 2.53 and 2.77
OD590 (crystal violet biofilm) (P. aeruginosa PAO1; strain ΔpctAΔtlpQ(tlpQ)): 3.41 and 3.66 and 3.44 and 3.21 and 3.40
OD590 (crystal violet biofilm) (P. aeruginosa PAO1; strain ΔtlpQ(Vector)): 3.21 and 3.31 and 3.58 and 3.67 and 3.42
pKd (PctA-LBD Y121A): 4.64 and 4.66 and 4.72
pKd (PctA-LBD W128A): 4.60 and 4.62 and 4.74
pKd (PctA-LBD R126A): 4.31 and 4.48 and 4.39
Phosphorylation level (%) of KinD (KinD; 10 μM DPD/AI-2): 27.45% and 24.59% and 21.92% and 23.68%
Phosphorylation level (%) of KinD (KinD; 50 μM DPD/AI-2): 49.23% and 54.72% and 52.70% and 57.14%
Methylation level (%) of PctA at E381 (PctA; 100 μM DPD/AI-2): 47.62% and 40.00%
Methylation level (%) of PctA, Fig. S5a (PctA; 100 μM DPD/AI-2): 41.67% and 36.36% and 40.00%
Methylation level (%) of PctA, Fig. S5b (PctA; 100 μM DPD/AI-2): 2.78% and 2.86% and 2.41%
Methylation level (%) of PctA at E381 (PctA; 500 μM DPD/AI-2): 66.67% and 55.56% and 63.16%
Methylation level (%) of PctA, Fig. S5a (PctA; 500 μM DPD/AI-2): 39.22% and 37.21% and 34.21%
Methylation level (%) of PctA, Fig. S5b (PctA; 500 μM DPD/AI-2): 2.27% and 2.63%
pKd (PctA-LBD): 6.92 and 6.80 and 6.89
pKd (LsrB): 6.09 to 6.72
pKd (PctC-LBDF147Y): 6.62 and 6.77 and 6.68
